Among the data in patent publication US10294229B2, “Heteroaryl substituted aminopyridine compounds” (BRISTOL-MYERS SQUIBB COMPANY, priority 2015, dated 2019) are IC50 values, retold here.

By IC50 is commonly meant the concentration that inhibits the measured activity by half.

IRAK4, sequence (Q9NWZ3 whole entry, species assumed): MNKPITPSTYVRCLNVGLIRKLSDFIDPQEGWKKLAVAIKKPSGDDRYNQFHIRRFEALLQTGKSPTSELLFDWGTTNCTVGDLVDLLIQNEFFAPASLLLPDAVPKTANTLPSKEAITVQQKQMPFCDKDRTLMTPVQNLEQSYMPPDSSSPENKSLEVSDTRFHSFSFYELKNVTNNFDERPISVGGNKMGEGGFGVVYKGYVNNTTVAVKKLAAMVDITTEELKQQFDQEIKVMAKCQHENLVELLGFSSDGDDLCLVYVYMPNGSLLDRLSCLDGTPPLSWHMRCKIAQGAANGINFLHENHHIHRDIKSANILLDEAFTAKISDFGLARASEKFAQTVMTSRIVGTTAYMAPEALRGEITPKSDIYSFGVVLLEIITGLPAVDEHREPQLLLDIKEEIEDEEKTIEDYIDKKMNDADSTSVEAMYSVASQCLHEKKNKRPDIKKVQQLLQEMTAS

This assay concerns the target IRAK4 (Homo sapiens (Human), UniProt Q9NWZ3). Briefly: IRAK4 Inhibition Assay. The class given is biochemical. As to conditions: ATP 500 μM; IRAK4 0.6 nM. Put shortly: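 Enzyme 0.6 nM, ATP 500 μM, FL-peptide 1.5 μM, DMSO 1.6%; HEPES pH 7.2/MgCl2/Brij 35/DTT buffer. RT, 60 min, EDTA stop. Mobility-shift product/substrate ratio; % inhib vs no-enzyme and vehicle controls.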
In the case of `CC(C)Nc1cc(-n2ncc3cc(C#N)cnc32)ncc1-n1cc(C(C)(C)O)nn1` [Example 298, 1-(5-(4-(2-hydroxypropan-2-yl)-1H-1,2,3-triazol-1-yl)-4-(isopropylamino)pyridin-2-yl)-1H-pyrazolo[3,4-b]pyridine-5-carbonitrile], the IC50 came to 194 nM.
Next, `CC(C)Nc1cc(-n2ncc3cc(C#N)cnc32)ncc1-n1cc(-c2cccnc2)nn1` [Example 299, 1-(4-(isopropylamino)-5-(4-(pyridin-3-yl)-1H-1,2,3-triazol-1-yl)pyridin-2-yl)-1H-pyrazolo[3,4-b]pyridine-5-carbonitrile]: 44 nM; `CC(C)Nc1cc(-n2ncc3cc(C#N)cnc32)ncc1-n1cc(C2CC2)nn1` [Example 300, 1-(5-(4-cyclopropyl-1H-1,2,3-triazol-1-yl)-4-(isopropylamino)pyridin-2-yl)-1H-pyrazolo[3,4-b]pyridine-5-carbonitrile]: 22 nM.
Next, `CC(C)Nc1cc(-n2ncc3cc(C#N)cnc32)ncc1-n1cc(CN2CCOCC2)nn1` [Example 301, 1-(4-(isopropylamino)-5-(4-(morpholinomethyl)-1H-1,2,3-triazol-1-yl)pyridin-2-yl)-1H-pyrazolo[3,4-b]pyridine-5-carbonitrile]: 22 nM; `CC(C)Nc1cc(-n2ncc3cc(C#N)cnc32)ncc1-n1cc(CCO)nn1` [Example 302, 1-(5-(4-(2-hydroxyethyl)-1H-1,2,3-triazol-1-yl)-4-(isopropylamino)pyridin-2-yl)-1H-pyrazolo[3,4-b]pyridine-5-carbonitrile]: 29 nM; `CC(C)Nc1cc(-n2ncc3cc(C#N)cnc32)ncc1-n1cc(-c2ccccn2)nn1` [Example 304, 1-(4-(isopropylamino)-5-(4-(pyridin-2-yl)-1H-1,2,3-triazol-1-yl)pyridin-2-yl)-1H-pyrazolo[3,4-b]pyridine-5-carbonitrile]: 115 nM.
With `CC(C)Nc1cc(-n2ncc3cc(C#N)cnc32)ncc1-n1cc(CC(C)(C)O)nn1` [Example 306, 1-(5-(4-(2-hydroxy-2-methylpropyl)-1H-1,2,3-triazol-1-yl)-4-(isopropylamino)pyridin-2-yl)-1H-pyrazolo[3,4-b]pyridine-5-carbonitrile] the figure was 56 nM; with `CC(C)Nc1cc(-n2ncc3cc(C#N)cnc32)ncc1-n1cc(CN(C)C)nn1` [Example 308, 1-(5-(4-((dimethylamino)methyl)-1H-1,2,3-triazol-1-yl)-4-(isopropylamino)pyridin-2-yl)-1H-pyrazolo[3,4-b]pyridine-5-carbonitrile], 80 nM; with `CC(C)Nc1cc(-n2ncc3cc(C#N)cnc32)ncc1-n1cc(C(N)=O)nn1` [Example 309, 1-(6-(5-cyano-1H-pyrazolo[3,4-b]pyridin-1-yl)-4-(isopropylamino)pyridin-3-yl)-1H-1,2,3-triazole-4-carboxamide], 304 nM.
Take `CC(C)Nc1cc(-n2ncc3cc(C#N)cnc32)ncc1-n1cc(CN)nn1` [Example 310, 1-(5-(4-(aminomethyl)-1H-1,2,3-triazol-1-yl)-4-(isopropylamino)pyridin-2-yl)-1H-pyrazolo[3,4-b]pyridine-5-carbonitrile]: the IC50 was 108 nM.
Take `CC(C)Nc1cc(-n2ncc3cc(C#N)cnc32)ncc1-n1cc(C(C)(C)N)nn1` [Example 312, 1-(5-(4-(2-aminopropan-2-yl)-1H-1,2,3-triazol-1-yl)-4-(isopropylamino)pyridin-2-yl)-1H-pyrazolo[3,4-b]pyridine-5-carbonitrile]: the IC50 came out at 213 nM.
With `CC(C)Nc1cc(-n2ncc3cc(C#N)cnc32)ncc1-n1cc(CNC(N)=O)nn1` [Example 313, 1-((1-(6-(5-cyano-1H-pyrazolo[3,4-b]pyridin-1-yl)-4-(isopropylamino)pyridin-3-yl)-1H-1,2,3-triazol-4-yl)methyl)urea] the figure was 115 nM.
